Assay results from patent US7166618B2, “Nitrosated and nitrosylated cyclooxygenase-2 inhibitors, compositions and methods of use” (NitroMed, Inc., priority 1999, dated 2007).

Molecular target: T1, ovine COX-2 (Ovis aries, UniProt P79208)
T1 sequence (P79208 17-603): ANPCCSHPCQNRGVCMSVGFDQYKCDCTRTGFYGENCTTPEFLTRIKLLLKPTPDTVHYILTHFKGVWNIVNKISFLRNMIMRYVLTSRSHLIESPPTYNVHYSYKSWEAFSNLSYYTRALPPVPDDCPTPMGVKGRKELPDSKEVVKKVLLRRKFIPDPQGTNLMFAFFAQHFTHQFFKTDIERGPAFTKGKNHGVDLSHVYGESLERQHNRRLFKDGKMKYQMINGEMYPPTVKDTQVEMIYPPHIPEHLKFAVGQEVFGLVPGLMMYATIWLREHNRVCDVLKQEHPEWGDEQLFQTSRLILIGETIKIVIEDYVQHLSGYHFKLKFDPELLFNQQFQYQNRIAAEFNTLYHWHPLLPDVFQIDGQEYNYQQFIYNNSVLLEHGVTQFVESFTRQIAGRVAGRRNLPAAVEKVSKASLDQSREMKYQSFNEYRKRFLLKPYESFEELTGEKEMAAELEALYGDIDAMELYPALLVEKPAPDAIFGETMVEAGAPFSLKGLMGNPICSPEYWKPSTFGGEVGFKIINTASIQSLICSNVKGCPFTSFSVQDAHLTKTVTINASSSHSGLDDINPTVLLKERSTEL
Experiment: biochemical
Type: biochemical
Protocol: The ovine COX-1 and COX-2 activities and the measurement of the prostaglandin products synthesized were performed using the COX Inhibitor Screening Assay (Cayman Chemical, Ann Arbor, Mich., which also contained the Prostaglandin Screening EIA Kit, used for prostaglandin quantification). The test compounds were dissolved at 50 times the highest final reaction concentration in DMSO or any other suitable solvent as stock solutions. These stock solutions were then diluted in the same solvent. Eight glass test tubes (13×100 mm) were placed in a 37° C. water bath. To each test tube was added 950 μL of reaction buffer (0.1 M Tris-HCl, pH 8.0, containing 5 mM EDTA, and 2 mM phenol), 10 μL of 100 µM heme solution, and 10 μL (5 units) of either ovine COX-1 or COX-2 and the resulting mixture was incubated with the enzyme for 2 minutes. Twenty μL of the solvent was added to one tube (100% initial activity or solvent control) and 20 μL of each dilution of the test compound was added to one tube each. Each tube was vortexed immediately after the addition. The enzyme was incubated with the inhibitor for 3.5 minutes at 37° C. The enzymatic reaction was then initiated by the addition of 10 μL of freshly prepared 10 mM arachidonic acid (neutralized with KOH), vortexed and then incubated for 2 minutes at 37° C. The reaction was terminated by the addition of 50 μL of 1 M HCl, vortexed and placed at room temperature. One hundred microliters of a saturated stannous chloride solution (50 mg/mL of 0.1 M HCl) was added and the reaction mixture was allowed to stand at room temperature for at least 5 minutes.
The prostaglandins (PG) produced in the reactions were assayed, after a 2,000-fold dilution, using the Prostaglandin Screening EIA Kit (Cayman Chemical, Ann Arbor, Mich.). The assay-contains an antibody with broad specificity for all the prostaglandin families (PGF, PGE, PGD, and thromboxane B-type) synthesized in the COX-1/COX 2 reactions. The synthesized prostaglandin competes with a PG-tagged acetylcholine esterase tracer for binding to the PG antibody. Binding of synthesized PG lowers the calorimetric development of the Ellman's Reagent (computed as % B/B0). The actual amount of synthesized PG was interpolated from a standard curve using known amounts of supplied prostaglandin E2 (PGE2) (PGE2 concentration vs. % B/B0). The data generated were the mean±standard deviation of triplicate wells in the EIA for a single reaction at a given inhibitor concentration.

## NS(=O)(=O)c1ccc(-c2c(-c3ccccc3)noc2CO[N+](=O)[O-])cc1 [Example 2b, 4-(5-((Nitrooxy)methyl)-3-phenylisoxazol-4-yl)benzenesulfonamide]
  IC50: 1200 nM
